According to publication PMC8367944, “Phase 1 study of the ATR inhibitor berzosertib in combination with cisplatin in patients with advanced solid tumours” (British Journal of Cancer, 2021):
“Also recorded” adds a separate entry of the source. Read-outs that look alike come from different tables or passages of the source.

How the values were obtained:
[1] = tested on: patients with advanced solid tumours; experiment: Phase 1 safety and tolerability: TEAEs (NCI CTCAE v4.0), DLTs, MTD/RP2D; assay type: in vivo
Protocol: Part B was a single-arm, 3 + 3 dose-escalation Phase 1 study evaluating the safety, tolerability and PK of berzosertib in combination with cisplatin in patients with advanced solid tumours.
Following screening and baseline evaluations, patients received berzosertib i.v. (90 mg/m^2; days 2 and 9) and cisplatin (40 mg/m^2; day 1), administered in 21-day cycles. Based on safety data from two concurrent studies,[14],[15] a 7- to 14-day lead-in period with single doses of berzosertib (140 mg/m^2) alone was also planned.
For the initial dose escalation, the dose of cisplatin was held constant, while the dose of berzosertib was escalated by a maximum of 50% in each cohort. After the berzosertib dose was escalated, the dose of cisplatin could be increased in order to find the maximum-tolerated dose (MTD) of berzosertib in combination with cisplatin; the MTD was defined as the highest dose of berzosertib tolerated in combination with a cisplatin dose between 60 and 100 mg/m^2, inclusive. […] Patients received berzosertib with cisplatin until progressive disease (PD) or unacceptable toxicity.
Safety evaluations (primary endpoint) included continuous assessment of TEAEs, which were graded using National Cancer Institute Common Terminology Criteria for Adverse Events version 4.0. […] Safety was evaluated throughout treatment and was used to inform dose-escalation decisions. […]

[2] = tested on: patients with advanced solid tumours; settings: on second infusion of berzosertib; idiosyncratic, no clear relationship to dose; stated as recognised, no reference given; cited from earlier work
ATR = tested on: ATR; parameters: method as in PMID 25010037; settings: ATR inhibitor; cited from earlier work
[3] = Plasma and urine pharmacokinetics of berzosertib (LC-MS/MS, non-compartmental analysis); assay type: in vivo, human; settings: for AUC(0-inf) / clearance / Cmax / half-life / Vd: plasma; for AUC(0-inf): read-out: AUC0–∞, mean (%CV); for clearance: read-out: CL, mean (%CV) (converted); for Cmax: read-out: Cmax, mean (%CV); for Vd: read-out: Vss, mean (%CV)
Protocol: In cycle 1, plasma samples for PK analysis were collected both pre- and post-dose on days 2–5 (pre-dose, 0.5 h before the end of infusion, at the end of infusion, and 0.5, 1, 2, 3, 7, 23, 47, and 71 h after end of infusion) and day 9 (pre-dose). Plasma samples were also collected on day 2 of cycle 2 (pre-dose and 2 h after the end of infusion). Cumulative urine was also collected for PK assessments on days 2 and 3 of cycle 1 (pre-dose to 3, 3–7, 7–11, and 11–23 h). Berzosertib concentrations were quantified using a validated liquid chromatography tandem-mass spectrometry method and plasma PK were characterised by non-compartmental analyses using Phoenix WinNolin 6.4 (Certara USA Inc., Princeton, NJ, USA).
The safety set was defined as all patients who received at least one dose of study drug; patients within the safety set were further classified into those who received at least one dose of the study drug in the lead-in period (lead-in safety set) and those who received at least one dose during the combination period (combination safety set). PK data were collected in the PK analysis set, defined as all enrolled patients who received at least one dose of berzosertib and provided at least one measurable post-dose sample. For efficacy analyses, the full analysis set was used, comprising all enrolled patients who had received a baseline scan, at least one dose of study drug, and had at least one post-baseline disease assessment.
Standard non-compartmental methods were used to determine PK parameters. Continuous variables were summarised using descriptive summary statistics. Categorical variables (e.g. incidence of a TEAE) were summarised using frequency counts and percentages. TEAEs observed were summarised by system organ class and preferred term according to the Medical Dictionary for Regulatory Activities v.18.0 or higher.

[4] = human, intravenous, cycle 1, day 2, berzosertib and cisplatin, berzosertib 90 mg/m^2, n = 2
[5] = human, intravenous, cycle 1, day 2, berzosertib and cisplatin, berzosertib 140 mg/m^2, n = 8
[6] = human, intravenous, cycle 1, day 2, berzosertib and cisplatin, berzosertib 210 mg/m^2, n = 17
[7] = human, iv, 140 mg/m2, lead-in period, berzosertib alone, 140 mg/m^2 i.v., n = 4

## CNCc1ccc(-c2cc(-c3nc(-c4ccc(S(=O)(=O)C(C)C)cc4)cnc3N)on2)cc1 [berzosertib]
[1]; berzosertib 140 mg/m^2 alone, n = 4
  DLTs during the monotherapy lead-in period: no DLTs
[1]; serum chemistry, haematology, urinalysis
  trends in laboratory results, vital signs or ECG parameters attributable to berzosertib: no clinically meaningful trends
[2]
  patients with acute hypersensitivity: < 5%
ATR
  IC50: 19 nM
[3]; 90–210 mg/m^2, based on mean plasma concentrations and Cmax
  dose proportionality of plasma exposure: approximately dose proportional
[3]; cisplatin given 24 h before berzosertib
  effect of cisplatin on berzosertib pharmacokinetics: no apparent effect; also recorded: does not affect the PK profile
[3]; cumulative urine, days 2 and 3 of cycle 1
  mean percentage of berzosertib excreted in the urine: 6%
[3]; human, intravenous, cumulative urine, days 2 and 3 of cycle 1, read-out: mean renal clearance (converted)
  CL renal: 78.3 mL/min
[3]; [4]
  AUC(0-inf): 2820 ng·h/mL
  clearance: 1020 mL/min
  Cmax: 458 ng/mL
  Vd: 1260 L
[3]; human, intravenous, cycle 1, day 2, berzosertib and cisplatin, berzosertib 90 mg/m^2, n = 2, read-out: T1/2, mean (%CV) (converted)
  half-life: 17 h
[3]; [5]
  AUC(0-inf): 4870 ng·h/mL
  clearance: 912 mL/min
  Cmax: 854 ng/mL
  Vd: 1060 L
[3]; [6]
  AUC(0-inf): 6740 ng·h/mL
  clearance: 1040 mL/min
  Cmax: 1230 ng/mL
  Vd: 1270 L
[3]; [7]
  AUC(0-inf): 5670 ng·h/mL
  clearance: 898 mL/min
  Cmax: 652 ng/mL
[3]; human, intravenous, 140 mg/m^2, berzosertib monotherapy, four patients, read-out: mean terminal elimination half-life (converted)
  half-life: ~17 h
[3]; human, intravenous, 140 mg/m^2, plasma, cycle 1, day 2, berzosertib and cisplatin, berzosertib 140 mg/m^2, n = 8, read-out: T1/2, mean (%CV) (converted)
  half-life: 17.5 h
[3]; human, intravenous, 210 mg/m^2, plasma, cycle 1, day 2, berzosertib and cisplatin, berzosertib 210 mg/m^2, n = 17, read-out: T1/2, mean (%CV) (converted)
  half-life: 17.3 h
[3]; human, iv, 140 mg/m2, plasma, lead-in period, berzosertib alone, 140 mg/m^2 i.v., n = 4, read-out: T1/2, mean (%CV) (converted)
  half-life: 20.3 h
